# Experimental data from patent US9023821B2, “Use of MicroRNA for treating diseases associated with a dysfunction of the cilia in multiciliated epithelial cells” (Centre National de la Recherche Scientifique, priority 2009, dated 2015).
# Columns and labels:
# [1] = tested on: human airway epithelial cells (HAECs); assay: High-throughput sequencing (HTS) of miRNAs at four stages of differentiation of HAECs; conditions: for Modulation (ratio of the level of intensity of expression in log2 in two stages of differentiation) measured by high-throughput sequencing, D7 − D0 / Modulation (ratio of the level of intensity of expression in log2 in two stages of differentiation) measured by high-throughput sequencing, FC − D7 / Modulation (ratio of the level of intensity of expression in log2 in two stages of differentiation) measured by high-throughput sequencing, WD − D0 / Modulation (ratio of the level of intensity of expression in log2 in two stages of differentiation) measured by high-throughput sequencing, WD − FC / Level of intensity of expression in log2 measured by high-throughput sequencing, D0 / Level of intensity of expression in log2 measured by high-throughput sequencing, D7 / Level of intensity of expression in log2 measured by high-throughput sequencing, FC / Level of intensity of expression in log2 measured by high-throughput sequencing, WD: Table VI; for Level of intensity of expression in log2 At the differentiated stage (WD) measured in HTS: healthy human airway epithelial tissue; for Level of intensity of expression in log2 measured by high-throughput sequencing, D0: stage D0; for Level of intensity of expression in log2 measured by high-throughput sequencing, D7: stage D7; for Level of intensity of expression in log2 measured by high-throughput sequencing, FC: stage FC; for Level of intensity of expression in log2 At the differentiated stage (WD) measured in HTS / Level of intensity of expression in log2 measured by high-throughput sequencing, WD: stage WD; for Modulation (ratio of the level of intensity of expression in log2 in two stages of differentiation), D7 − D0 / Modulation (ratio of the level of intensity of expression in log2 in two stages of differentiation), FC − D7 / Modulation (ratio of the level of intensity of expression in log2 in two stages of differentiation), WD − FC / Abundance (%), D0 / Abundance (%), D7 / Abundance (%), FC / Abundance (%), WD: HTS; for Abundance (%), D0: ALI-D0; for Abundance (%), D7: ALI-D7; for Abundance (%), FC: ALI-FC; for Abundance (%), WD: ALI-WD
# Procedure, shortened: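 Small-RNA libraries from differentiating HAECs (ALI-D0 to ALI-WD) were built by ligation-based SOLiD chemistry, size-selected and sequenced. Strand counts were normalized per million reads, converted to percentage abundance, and filtered on adjusted P-value below 0.05.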
# [2] = tested on: human airway epithelial cells (HAECs); assay: Agilent miRNA chips, miRNA expression at four stages of differentiation of HAECs; conditions: for Modulation (ratio of the level of intensity of expression in log2 in two stages of differentiation) measured with the Agilent chips, D7 − D0 / Modulation (ratio of the level of intensity of expression in log2 in two stages of differentiation) measured with the Agilent chips, FC − D7 / Modulation (ratio of the level of intensity of expression in log2 in two stages of differentiation) measured with the Agilent chips, WD − D0 / Modulation (ratio of the level of intensity of expression in log2 in two stages of differentiation) measured with the Agilent chips, WD − FC / Level of intensity of expression in log2 measured with the Agilent chips, D0 / Level of intensity of expression in log2 measured with the Agilent chips, D7 / Level of intensity of expression in log2 measured with the Agilent chips, FC / Level of intensity of expression in log2 measured with the Agilent chips, WD: Table VI; for Modulation (ratio of the level of intensity of expression in log2 at two stages of differentiation), FC − D7 / Modulation (ratio of the level of intensity of expression in log2 at two stages of differentiation), WD − FC: Agilent miRNA chips, Table V; for Level of intensity of expression in log2 measured with the Agilent chips, D0: stage D0; for Level of intensity of expression in log2 measured with the Agilent chips, D7: stage D7; for Level of intensity of expression in log2 measured with the Agilent chips, FC: stage FC; for Level of intensity of expression in log2 measured with the Agilent chips, WD: stage WD
# Procedure, shortened: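 Expression read from hybridization signals on Human miRNA Microarray v2 arrays spanning all miRBase v.12.0 human miRNAs plus 89 viral ones. Samples are RNA from the same patients profiled by sequencing, labelled with the standard kit.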
# [3] = tested on: basal cells and pyramidal cells of the airway epithelium; assay: miRNA expression in sorted basal cells versus pyramidal cells (ciliated + secretory), HTS and Agilent chips; parameters: species or system human; conditions: for Modulation of expression of the miRNAs in pyramidal cells (323(−)) relative to basal cells 323(+): HTS and Agilent chips; for Intensity of the level of expression in log2 in pyramidal cells (323(−)): pyramidal cells (ciliated + secretory)
# Procedure, shortened: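 Epithelium dissociated from nasal polyps is held 30 min in PBS-BSA-EDTA, then labelled 20 min at 4° C for CD151 and tissue factor. After DAPI staining, live single cells are sorted into marker-double-positive and double-negative fractions, and sort purity and identity are verified. Total RNA then undergoes miRNA profiling on arrays or by sequencing.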
Substance,"Modulation (ratio of the level of intensity of expression in log2 in two stages of differentiation) measured by high-throughput sequencing, D7 − D0 [1]","Modulation (ratio of the level of intensity of expression in log2 in two stages of differentiation) measured by high-throughput sequencing, FC − D7 [1]","Modulation (ratio of the level of intensity of expression in log2 in two stages of differentiation) measured by high-throughput sequencing, WD − D0 [1]","Modulation (ratio of the level of intensity of expression in log2 in two stages of differentiation) measured by high-throughput sequencing, WD − FC [1]",Level of intensity of expression in log2 At the differentiated stage (WD) measured in HTS [1],"Level of intensity of expression in log2 measured by high-throughput sequencing, D0 [1]","Level of intensity of expression in log2 measured by high-throughput sequencing, D7 [1]","Level of intensity of expression in log2 measured by high-throughput sequencing, FC [1]","Level of intensity of expression in log2 measured by high-throughput sequencing, WD [1]","Modulation (ratio of the level of intensity of expression in log2 in two stages of differentiation) measured with the Agilent chips, D7 − D0 [2]","Modulation (ratio of the level of intensity of expression in log2 at two stages of differentiation), FC − D7 [2]","Modulation (ratio of the level of intensity of expression in log2 in two stages of differentiation) measured with the Agilent chips, FC − D7 [2]","Modulation (ratio of the level of intensity of expression in log2 in two stages of differentiation) measured with the Agilent chips, WD − D0 [2]","Modulation (ratio of the level of intensity of expression in log2 at two stages of differentiation), WD − FC [2]","Modulation (ratio of the level of intensity of expression in log2 in two stages of differentiation) measured with the Agilent chips, WD − FC [2]","Level of intensity of expression in log2 measured with the Agilent chips, D0 [2]","Level of intensity of expression in log2 measured with the Agilent chips, D7 [2]","Level of intensity of expression in log2 measured with the Agilent chips, FC [2]","Level of intensity of expression in log2 measured with the Agilent chips, WD [2]",Modulation of expression of the miRNAs in pyramidal cells (323(−)) relative to basal cells 323(+) [3],also measured
"hsa-miR-100: human miRNA, SEQ ID No. 1 (AACCCGUAGAUCCGAACUUGUG; expressed or natural sequence; listed as Homo sapiens)",−1.05 log2,−2.36 log2,−1.72 log2,1.69 log2,9.00 log2,10.72 log2,9.67 log2,7.32 log2,9.00 log2,−0.46 log2,−1.25 log2,−1.25 log2,−1.49 log2,0.22 log2,0.22 log2,8.00 log2,7.55 log2,6.29 log2,6.52 log2,1.62,Intensity of the level of expression in log2 in basal cells (323(+)) [3]: 3.28 log2; Intensity of the level of expression in log2 in pyramidal cells (323(−)) [3]: 4.90 log2
"hsa-miR-106b: human miRNA, SEQ ID No. 2 (UAAAGUGCUGACAGUGCAGAU; expressed or natural sequence; listed as Homo sapiens)",1.33 log2,−0.28 log2,0.96 log2,−0.09 log2,5.39 log2,4.43 log2,5.76 log2,5.48 log2,5.39 log2,1.39 log2,−0.53 log2,−0.53 log2,0.69 log2,−0.18 log2,−0.18 log2,8.08 log2,9.47 log2,8.94 log2,8.77 log2,−2.05,Intensity of the level of expression in log2 in basal cells (323(+)) [3]: 7.22 log2; Intensity of the level of expression in log2 in pyramidal cells (323(−)) [3]: 5.16 log2
"hsa-miR-125a-5p: human miRNA, SEQ ID No. 3 (UCCCUGAGACCCUUUAACCUGUGA; expressed or natural sequence; listed as Homo sapiens)",0.64 log2,−0.27 log2,1.16 log2,0.79 log2,14.08 log2,12.92 log2,13.55 log2,13.29 log2,14.08 log2,1.29 log2,−0.46 log2,−0.46 log2,0.79 log2,−0.04 log2,−0.04 log2,7.37 log2,8.66 log2,8.20 log2,8.15 log2,−0.05,"Modulation (ratio of the level of intensity of expression in log2 in two stages of differentiation), D7 − D0 [1]: 0.64 log2; Modulation (ratio of the level of intensity of expression in log2 in two stages of differentiation), FC − D7 [1]: −0.27 log2; Modulation (ratio of the level of intensity of expression in log2 in two stages of differentiation), WD − FC [1]: 0.79 log2; Abundance (%), D0 [1]: 1.69%; Abundance (%), D7 [1]: 2.64%; Abundance (%), FC [1]: 2.13%; Abundance (%), WD [1]: 2.79%; Intensity of the level of expression in log2 in basal cells (323(+)) [3]: 6.63 log2; Intensity of the level of expression in log2 in pyramidal cells (323(−)) [3]: 6.58 log2"
"hsa-miR-130a: human miRNA, SEQ ID No. 4 (CAGUGCAAUGUUAAAAGGGCAU; expressed or natural sequence; listed as Homo sapiens)",−1.40 log2,0.19 log2,−1.94 log2,−0.73 log2,11.98 log2,13.91 log2,12.51 log2,12.71 log2,11.98 log2,0.65 log2,−1.53 log2,−1.53 log2,−1.31 log2,−0.43 log2,−0.43 log2,8.83 log2,9.48 log2,7.95 log2,7.52 log2,−6.33,"Modulation (ratio of the level of intensity of expression in log2 in two stages of differentiation), D7 − D0 [1]: −1.40 log2; Modulation (ratio of the level of intensity of expression in log2 in two stages of differentiation), FC − D7 [1]: 0.19 log2; Modulation (ratio of the level of intensity of expression in log2 in two stages of differentiation), WD − FC [1]: −0.73 log2; Abundance (%), D0 [1]: 3.38%; Abundance (%), D7 [1]: 1.28%; Abundance (%), FC [1]: 1.42%; Abundance (%), WD [1]: 0.65%; Intensity of the level of expression in log2 in basal cells (323(+)) [3]: 9.76 log2; Intensity of the level of expression in log2 in pyramidal cells (323(−)) [3]: 3.43 log2; cell type in which the miRNA is specifically expressed ([3]; sorted ciliated/pyramidal versus basal cells): more specific to the basal cells"
